The values that follow come from patent publication US20250018068A1, “4H-IMIDAZO[1,5-B]PYRAZOLE DERIVATIVES FOR DIAGNOSIS” (AC IMMUNE SA, priority 2021, published 2025).

The experiment deals with T1, PD brain-derived alpha-synuclein aggregates (Homo sapiens, UniProt P37840).
T1 construct: from tissue; host or cells: human PD donor brain, sarkosyl-insoluble pellet
The experiment is described as follows: Micro-radiobinding competition assay for the determination of binding affinity. Particulars: for inhibition at 0.1 µM: read-out: Micro-radiobinding competition assay Competition at 100 nM (%); for inhibition at 1 µM: read-out: Micro-radiobinding competition assay Competition at 1 μM (%); for Ki: * = mean of two independent experiments, two donors. How it is done: The procedure was adapted from the protocol described in Spillantini et al., 1998. Frozen tissue blocks from PD donors were thawed on ice and homogenized using a glass dounce homogenizer. The homogenate was then centrifuged at 11,000×g (12,700 RPM) in an ultracentrifuge (Beckman, XL100K) for 20 minutes at 4° C. using a pre-cooled 70.1 rotor (Beckman, 342184). Pellets were resuspended in extraction buffer [10 mM Tris-HCl pH 7.4, 10% sucrose, […], 1% protease inhibitor (Calbiochem 539131), 1 mM EGTA, 1% phosphatase inhibitor (Sigma P5726 and P0044)] and centrifuged at 15,000×g (14,800 RPM, a 70.1 Ti rotor) for 20 minutes at 4° C. Pellets were discarded and sarkosyl (20% stock solution, Sigma L7414) was added to the supernatants to a final concentration of 1% at room temperature for one hour. This solution was then centrifuged at 100,000×g (38,000 RPM, 70.1 Ti rotor) for one hour at 4° C. Pellets containing enriched alpha-synuclein aggregates were resuspended in PBS and stored at −80° C. until use.
PD brain-derived alpha-synuclein aggregates were spotted onto microarray slides. The slides were incubated with [^3H]-alpha-synuclein reference at 6 nM or 20 nM and the example compounds (non-radiolabelled) at 1 μM and 100 nM. In some cases, the non-radiolabelled example compounds were further assessed for a range of different concentrations, varying from 0.05 nM to 2 μM. After incubation, slides were washed and scanned by a real-time autoradiography system (BeaQuant, ai4R). Quantification of the signal was performed by using the Beamage image analysis software (ai4R). Non-specific signal was determined with an excess of non-radiolabelled Example-1 (2 μM) and specific binding was calculated by subtracting the non-specific signal from the total signal. Competition was calculated as percent, where 0% was defined as the specific binding in the presence of vehicle and 100% as the values obtained in the presence of excess of the non-radiolabelled Example-1. Ki values were calculated in GraphPad Prism7 by applying a nonlinear regression curve fit using a one site, specific binding model. All measurements were performed with at least two technical replicates. For compounds tested in more than one experiment, the mean of the replicates or Ki values in independent experiments is reported.
Results: Example compounds were assessed for their potency to compete with the binding of [^3H]-reference alpha-synuclein ligand to PD patient brain-derived alpha-synuclein aggregates. Results of the micro-radiobinding competition assay for the example compounds tested are shown in Table 3 as: % competition at 1 μM and 100 nM.
Table 3: Assessment of binding affinity by micro-radiobinding competition assay on human PD brain-derived alpha-synuclein aggregates. Percent (%) competition over the tritiated [^3H]-Example-1 ligand in the presence of 1 μM and 100 nM of example compounds 1-9. Ki values are also shown for selected example compounds. *, mean of Ki values in two independent experiments using PD brain-derived homogenates from two different donors.

Where [1] appears, read: 100 nM non-radiolabelled compound, competition over tritiated [3H]-Example-1 ligand, human PD brain-derived alpha-synuclein aggregates.
Setting [2] is: 1 μM non-radiolabelled compound, competition over tritiated [3H]-Example-1 ligand, human PD brain-derived alpha-synuclein aggregates.
Where [3] appears, read: human PD brain-derived alpha-synuclein aggregates.

Structures can show the parent of a compound that is named as a salt. Where two headings read alike, the source gives them in different places.

For orientation: Ki means a dissociation constant, usually derived from enzyme kinetics or from competition with a known ligand. Lower therefore signals a stronger hold on the target.

With `Cn1ccc(N2Cc3cc(-c4ccc(N5CC[C@H](F)C5)nc4)nn3C2=O)n1` [Example 7, (S)-2-(6-(3-fluoropyrrolidin-1-yl)pyridin-3-yl)-5-(1-methyl-1H-pyrazol-3-yl)-4H-imidazo[1,5-b]pyrazol-6(5H)-one hydrochloride], the inhibition at 0.1 µM under setting [1] came to 73%. Further, under setting [2], the inhibition at 1 µM came out at 96%.
Regarding `Cc1nc(N2CC[C@H](F)C2)ccc1-c1cc2n(n1)C(=O)N(c1cccnc1)C2` [Example 15, (S)-2-(6-(3-fluoropyrrolidin-1-yl)-2-methylpyridin-3-yl)-5-(pyridin-3-yl)-4,5-dihydro-6H-imidazo[1,5-b]pyrazol-6-onehydrogen chloride salt], the inhibition at 0.1 µM under setting [1] stood at 48%. Further, under setting [2], the inhibition at 1 µM was found to be 80%. Besides, the Ki under setting [3] worked out at 141 nM.
In the case of `O=C1N(c2ccccn2)Cc2cc(-c3ccc(N4CC[C@@H](F)C4)nc3)nn21` [Example 3, (R)-2-(6-(3-fluoropyrrolidin-1-yl)pyridin-3-yl)-5-(pyridin-2-yl)-4H-imidazo[1,5-b]pyrazol-6(5H)-one], the inhibition at 0.1 µM under setting [1] was 74%. In addition, the inhibition at 1 µM under setting [2] is 89%.
As to `O=C1N(c2cccnc2)Cc2cc(-c3cnc(N4CC[C@@H](F)C4)c(F)c3)nn21` [Example 12, (R)-2-(5-fluoro-6-(3-fluoropyrrolidin-1-yl)pyridin-3-yl)-5-(pyridin-3-yl)-4,5-dihydro-6H-imidazo[1,5-b]pyrazol-6-one hydrogen chloride salt], the inhibition at 0.1 µM under setting [1] stood at 76%. Moreover, under setting [2], the inhibition at 1 µM came to 90%. The compound also had an inhibition constant (Ki) under setting [3] of 34 nM.
As for `O=C1N(c2cccnc2)Cc2cc(-c3cnc(N4CC[C@H](F)C4)c(F)c3)nn21` [Example 13, (S)-2-(5-fluoro-6-(3-fluoropyrrolidin-1-yl)pyridin-3-yl)-5-(pyridin-3-yl)-4,5-dihydro-6H-imidazo[1,5-b]pyrazol-6-one hydrogen chloride salt], the inhibition at 0.1 µM under setting [1] is 55%. Also, the inhibition at 1 µM under setting [2] worked out at 71%. This compound yielded a Ki under setting [3] of 101 nM.
On to `O=C1N(c2ccncc2)Cc2cc(-c3ccc(N4CC[C@H](F)C4)nc3)nn21` [Example 5, (S)-2-(6-(3-fluoropyrrolidin-1-yl)pyridin-3-yl)-5-(pyridin-4-yl)-4H-imidazo[1,5-b]pyrazol-6(5H)-one hydrochloride], for which the inhibition at 0.1 µM under setting [1] was 59%. Moreover, the inhibition at 1 µM under setting [2] was 89%. The Ki under setting [3] came out at 26 nM.
Taken in the same sequence, the figures for `Cc1ncc(N2Cc3cc(-c4ccc(N5CC[C@H](F)C5)nc4)nn3C2=O)s1` [Example 19, (S)-2-(6-(3-fluoropyrrolidin-1-yl)pyridin-3-yl)-5-(2-methylthiazol-5-yl)-4,5-dihydro-6H-imidazo[1,5-b]pyrazol-6-one hydrogen chloride salt] were 41%, 78% and 65 nM.
Regarding `O=C1N(c2cccnc2)Cc2cc(-c3cnc(N4CC[C@H](F)C4)cn3)nn21` [Example 11, (S)-2-(5-(3-fluoropyrrolidin-1-yl)pyrazin-2-yl)-5-(pyridin-3-yl)-4,5-dihydro-6H-imidazo[1,5-b]pyrazol-6-one hydrogen chloride salt], the inhibition at 0.1 µM under setting [1] was 25%. The inhibition at 1 µM under setting [2] was determined as 76%. Under setting [3], this compound yielded a Ki of 252 nM.
Turning to `O=C1N(c2cccnc2)Cc2cc(-c3ccc(Br)nc3)nn21` [Example 9, 2-(6-bromopyridin-3-yl)-5-(pyridin-3-yl)-4H-imidazo[1,5-b]pyrazol-6(5H)-one], the inhibition at 0.1 µM came to 45% and the inhibition at 1 µM was 62%.
As to `Cn1cc(N2Cc3cc(-c4ccc(N5CC[C@H](F)C5)nc4)nn3C2=O)cn1` [Example 6, (S)-2-(6-(3-fluoropyrrolidin-1-yl)pyridin-3-yl)-5-(1-methyl-1H-pyrazol-4-yl)-4H-imidazo[1,5-b]pyrazol-6(5H)-one], the inhibition at 0.1 µM amounted to 43% and the inhibition at 1 µM was 93%.
Take `O=C1N(c2cncs2)Cc2cc(-c3ccc(N4CC[C@H](F)C4)nc3)nn21` [Example 17, (S)-2-(6-(3-fluoropyrrolidin-1-yl)pyridin-3-yl)-5-(thiazol-5-yl)-4,5-dihydro-6H-imidazo[1,5-b]pyrazol-6-one hydrogen chloride salt]: the “Micro-radiobinding competition assay Competition at 100 nM (%)” value under setting [1] is reported as 66%. Further, the “Micro-radiobinding competition assay Competition at 1 μM (%)” value under setting [2] is listed as 95%.
Regarding `O=C1N(c2cccnc2)Cc2cc(-c3ccc(N4CC[C@@H](F)C4)nc3)nn21` [Example 2, (R)-2-(6-(3-fluoropyrrolidin-1-yl)pyridin-3-yl)-5-(pyridin-3-yl)-4H-imidazo[1,5-b]pyrazol-6(5H)-one hydrochloride], the inhibition at 0.1 µM under setting [1] was 87%. Moreover, under setting [2], the inhibition at 1 µM came out at 97%. Under setting [3], this compound yielded a Ki of 46 nM.
`O=C1N(c2ccccn2)Cc2cc(-c3ccc(N4CC[C@H](F)C4)nc3)nn21` [Example 4, (S)-2-(6-(3-fluoropyrrolidin-1-yl)pyridin-3-yl)-5-(pyridin-2-yl)-4H-imidazo[1,5-b]pyrazol-6(5H)-one hydrochloride]: under setting [1], the inhibition at 0.1 µM turned out to be 94%. For the same compound, the inhibition at 1 µM under setting [2] was 100%.
With `Cn1cc(N2Cc3cc(-c4ccc(OCCF)nc4)nn3C2=O)cn1` [Example 22, 2-(6-(2-fluoroethoxy)pyridin-3-yl)-5-(1-methyl-1H-pyrazol-4-yl)-4,5-dihydro-6H-imidazo[1,5-b]pyrazol-6-one hydrogen chloride salt], the inhibition at 0.1 µM under setting [1] turned out to be 45%. For the same compound, under setting [2], the inhibition at 1 µM turned out to be 89%.
As for `O=C1N(c2cnn(CCF)c2)Cc2cc(-c3ccc(N4CCCC4)nc3)nn21` [Example 8, 5-(1-(2-fluoroethyl)-1H-pyrazol-4-yl)-2-(6-(pyrrolidin-1-yl)pyridin-3-yl)-4H-imidazo[1,5-b]pyrazol-6(5H)-one], the inhibition at 0.1 µM is 27% and the inhibition at 1 µM is 73%. The compound also displayed a Ki under setting [3] of 64 nM.
`O=C1N(c2cccnc2)Cc2cc(-c3cnc(N4CC[C@@H](F)C4)cn3)nn21` [Example 10, (R)-2-(5-(3-fluoropyrrolidin-1-yl)pyrazin-2-yl)-5-(pyridin-3-yl)-4,5-dihydro-6H-imidazo[1,5-b]pyrazol-6-one]: the inhibition at 0.1 µM under setting [1] came out at 72%. The inhibition at 1 µM under setting [2] is 100%.
In the case of `Cc1nc(N2CC[C@@H](F)C2)ccc1-c1cc2n(n1)C(=O)N(c1cccnc1)C2` [Example 14, (R)-2-(6-(3-fluoropyrrolidin-1-yl)-2-methylpyridin-3-yl)-5-(pyridin-3-yl)-4,5-dihydro-6H-imidazo[1,5-b]pyrazol-6-one hydrogen chloride salt], the inhibition at 0.1 µM under setting [1] is 56%. Also, the inhibition at 1 µM under setting [2] is 85%. The Ki under setting [3] came to 80 nM.
Turning to `O=C1N(c2ccns2)Cc2cc(-c3ccc(N4CC[C@@H](F)C4)nc3)nn21` [Example 20, (R)-2-(6-(3-fluoropyrrolidin-1-yl)pyridin-3-yl)-5-(isothiazol-5-yl)-4,5-dihydro-6H-imidazo[1,5-b]pyrazol-6-one hydrogen chloride salt], the inhibition at 0.1 µM under setting [1] came out at 85%. Moreover, under setting [2], the inhibition at 1 µM worked out at 87%.
Consider `O=C1N(c2cncs2)Cc2cc(-c3ccc(OCCF)nc3)nn21` [Example 23, 2-(6-(2-fluoroethoxy)pyridin-3-yl)-5-(thiazol-5-yl)-4,5-dihydro-6H-imidazo [1,5-b] pyrazol-6-one hydrogen chloride salt], for which the inhibition at 0.1 µM under setting [1] came out at 31%. In addition, the inhibition at 1 µM under setting [2] is 82%.
With `O=C1N(c2cncs2)Cc2cc(-c3ccc(N4CCC(F)C4)nc3)nn21` (stereo in doubt) [Example 16, (R)-2-(6-(3-fluoropyrrolidin-1-yl)pyridin-3-yl)-5-(thiazol-5-yl)-4,5-dihydro-6H-imidazo[1,5-b]pyrazol-6-one hydrogen chloride salt], the inhibition at 0.1 µM under setting [1] amounted to 79%. In addition, the inhibition at 1 µM under setting [2] stood at 98%.
